pIC50: −log10 of the molar value. Read-outs that look alike come from different tables or passages of the source.
Test system: Onchocerca gutturosa Adult Male Worms
Test: Onchocerciasis in vitro screening model, worm motility score
Format: cell-based
Conditions: read-out: O. gutturosa activity level (IC50 or MED)
[1] = Onchocerca gutturosa, Table 1 O. gutturosa, levels A/B/C, motility or MTT readout not specified
[2] = in vitro, Onchocerca gutturosa adult male worms, class A/B/C

pIC50 [1]	pIC50 [2]	SMILES
5.30 to 6.30	–	Cc1ccnc(Nc2nc(-c3ncccc3C(F)(F)F)ns2)c1 [Compound 13, N-(4-methyl-pyridin-2-yl)-3-(3-(trifluoro-methyl)pyridin-2-yl)-1,2,4-thiadiazol-5-amine]
–	5.30 to 6.30	CC(C)OC(=O)c1cccnc1Nc1nc(-c2ccc(OC(C)C)cn2)ns1 [Compound 327, isopropyl 2-(3-(5-isopropoxypyridin-2-yl)-1,2,4-thiadiazol-5-ylamino)nicotinate]
–	5.30 to 6.30	COc1ccc(-c2nnc(Nc3cc(OC(C)C)ccn3)o2)nc1 [Compound 255, N-(4-isoprop-oxypyridin-2-yl)-5-(5-methoxy-pyridin-2-yl)-1,3,4-oxadiazol-2-amine]
5.30 to 6.30	–	CC(C)Oc1cnc(-c2nsc(Nc3ncccc3N3CCCC3=O)n2)cc1C(=O)N(C)C [Compound 194, 5-isopropoxy-N,N-dimethyl-2-(5-(3-(2-oxopyrrolidin-1-yl)pyridin-2-ylamino)-1,2,4-thiadiazol-3-yl)isonicotin-amide]
–	5.30 to 6.30	CC(=O)N(C)c1cc(C(F)(F)F)cnc1Nc1nc(-c2ccc(OC(C)C)nn2)ns1 [Compound 314, N-(2-(3-(6-isopropoxy-pyridazin-3-yl)-1,2,4-thiadiazol-5-ylamino)-5-(trifluoromethyl)pyridin-3-yl)-N-methylacetamide]
5.30 to 6.30	–	Cc1cccnc1N(c1nc(-c2ccc(OC(C)C)cn2)ns1)C(C)C [Compound 138, 3-(5-isoprop-oxypyridin-2-yl)-N-isopropyl-N-(3-methylpyridin-2-yl)-1,2,4-thiadiazol-5-amine]
5.30 to 6.30	–	Cc1cccnc1Nc1nc(-c2cc(C(=O)N(C)C)c(OC(C)C)cn2)ns1 [Compound 192, 5-isopropoxy-N,N-dimethyl-2-(5-(3-methylpyridin-2-ylamino)-1,2,4-thiadiazol-3-yl)isonicotin-amide]
–	> 6.70	CC(C)c1cnc(Nc2nc(-c3cc4c(cn3)N(C)CC4)ns2)cc1C(F)(F)F [Compound 322, N-(5-isopropyl-4-(trifluoromethyl)pyridin-2-yl)-3-(1-methyl-2,3-dihydro-1H-pyrrolo[2,3-c]pyridin-5-yl)-1,2,4-thiadiazol-5-amine]
5.30 to 6.30	–	CN1CCC(Oc2ccc(-c3nsc(Nc4ncccc4N(C)C)n3)nc2)CC1 [Compound 59, N3,N3-dimethyl-N2-(3-(5-(1-methylpiperidin-4-yloxy)pyridin-2-yl)-1,2,4-thiadiazol-5-yl)pyridine-2,3-diamine]
–	5.30 to 6.30	CC(=O)N(C)c1nccnc1Nc1nc(-c2ccc(OC(C)C)cn2)ns1 [Compound 313, N-(3-(3-(5-isopropoxypyridin-2-yl)-1,2,4-thiadiazol-5-ylamino)pyrazin-2-yl)-N-methylacetamide]
5.30 to 6.30	–	CC(C)Oc1cc(-c2nsc(Nc3ncccc3N(C)C)n2)ncc1C(F)(F)F [Compound 147, N2-(3-(4-isoprop-oxy-5-(trifluoromethyl)pyridin-2-yl)-1,2,4-thiadiazol-5-yl)-N3,N3-dimethyl-pyridine-2,3-diamine]
–	> 6.70	CC(C)c1cnc(Nc2nc(-c3cc4c(cn3)N(C)CC4)ns2)c(C(F)(F)F)c1 [Compound 323, N-(5-isopropyl-3-(trifluoromethyl)pyridin-2-yl)-3-(1-methyl-2,3-dihydro-1H-pyrrolo[2,3-c]pyridin-5-yl)-1,2,4-thiadiazol-5-amine]
5.30 to 6.30	–	COc1ccc(Nc2nnc(-c3ccc(OC(C)C)cn3)o2)nc1 [Compound 180, 5-(5-isopropoxy-pyridin-2-yl)-N-(5-methoxy-pyridin-2-yl)-1,3,4-oxadiazol-2-amine]
> 6.70	–	Cc1cccnc1Nc1nc(-c2ccc(OC3CCN(C4CC4)C[C@@H]3F)cn2)ns1 (stereo partly drawn) [Compound 92, 3-(5-((3S)-1-cyclopropyl-3-fluoro-piperidin-4-yloxy)pyridin-2-yl)-N-(3-methylpyridin-2-yl)-1,2,4-thiadiazol-5-amine]
–	5.30 to 6.30	CN(C)C(=O)c1cccnc1Nc1nc(-c2cc3c(cn2)N(C)CC3)ns1 [Compound 229, N,N-dimethyl-2-(3-(1-methyl-2,3-dihydro-1H-pyrrolo[2,3-c]pyridin-5-yl)-1,2,4-thiadiazol-5-ylamino) nicotinamide]
5.30 to 6.30	–	CN1CCC(Oc2ccc(-c3nsc(Nc4ncccn4)n3)nc2)CC1 [Compound 36, 3-(5-(1-methyl-piperidin-4-yloxy)pyridin-2-yl)-N-(pyrimidin-2-yl)-1,2,4-thiadiazol-5-amine]
–	> 6.70	CC(=O)N(C)c1nccnc1Nc1nc(-c2cc3ccn(C(C)C)c3cn2)ns1 [Compound 302, N-(3-(3-(1-isopropyl-1H-pyrrolo[2,3-c]pyridin-5-yl)-1,2,4-thiadiazol-5-ylamino)pyrazin-2-yl)-N-methylacetamide]
5.30 to 6.30	–	Cc1cccnc1Nc1nc(-c2ccc(OC3CC4(C3)CN(C)C4)cn2)ns1 [Compound 88, 3-(5-(2-methyl-2-azaspiro[3.3]heptan-6-yloxy)pyridin-2-yl)-N-(3-methylpyridin-2-yl)-1,2,4-thiadiazol-5-amine]
6.30 to 6.70	–	Cc1cccnc1Nc1nc(-c2ccc(OC(C)C)cn2)n[nH]1 [Compound 69, N-(3-(5-isopropoxy-pyridin-2-yl)-1H-1,2,4-triazol-5-yl)-3-methylpyridin-2-amine]
–	5.30 to 6.30	CC(=O)Nc1ncc(C(F)(F)F)cc1N(C)c1nnc(-c2ccc(OC(C)C)cn2)o1 [Compound 319, N-(3-((5-(5-isopropoxypyridin-2-yl)-1,3,4-oxadiazol-2-yl)(methyl)amino)-5-(trifluoromethyl)pyridin-2-yl)acetamide]
5.30 to 6.30	–	Cc1cccnc1-c1nnc(Nc2ccccn2)o1 [Compound 32, 5-(3-methyl-pyridin-2-yl)-N-(pyridin-2-yl)-1,3,4-oxadiazol-2-amine]
5.30 to 6.30	–	CN1CCC(Oc2ccc(Nc3nc(-c4ccccn4)ns3)nc2)CC1 [Compound 11, N-(5-(1-methyl-piperidin-4-yloxy)pyridin-2-yl)-3-(pyridin-2-yl)-1,2,4-thiadiazol-5-amine]
5.30 to 6.30	–	CC(C)Oc1ccc(-c2n[nH]c(Nc3ncccc3N(C)C)n2)nc1 [Compound 140, N2-(3-(5-isoprop-oxypyridin-2-yl)-1H-1,2,4-triazol-5-yl)-N3,N3-dimethyl-pyridine-2,3-diamine]

SMILES	pIC50 [1]	pIC50 [2]
CC(C)COc1ccc(-c2nsc(Nc3ncccc3N(C)C)n2)nc1 [Compound 149, N2-(3-(5-isobutoxy-pyridin-2-yl)-1,2,4-thiadiazol-5-yl)-N3,N3-dimethyl-pyridine-2,3-diamine]	> 6.70	–
CC(C)Oc1ccc(-c2nsc(Nc3ncccc3N(C)C)n2)nc1 [Compound 56, N2-(3-(5-isoprop-oxypyridin-2-yl)-1,2,4-thiadiazol-5-yl)-N3,N3 - dimethyl-pyridine-2,3-diamine]	5.30 to 6.30	–
COC(=O)c1cc(-c2nsc(Nc3ncccc3C)n2)ncc1OC(C)C [Compound 196, methyl 5-isopropoxy-2-(5-(3-methylpyridin-2-ylamino)-1,2,4-thiadiazol-3-yl)isonicotinate]	6.30 to 6.70	–
CC(=O)N(C)c1cccnc1Nc1nc(-c2cc(C(C)C)ccn2)ns1 [Compound 216, N-(2-(3-(4-iso-propylpyridin-2-yl)-1,2,4-thiadiazol-5-ylamino)pyridin-3-yl)-N-methyl-acetamide]	–	6.30 to 6.70
CC(C)Oc1cnc(-c2nsc(Nc3ncccc3C(=O)N(C)C)n2)cc1C(F)F [Compound 260, 2-(3-(4-(difluoro-methyl)-5-isopropoxy-pyridin-2-yl)-1,2,4-thiadiazol-5-ylamino)-N,N-dimethyl-nicotinamide]	–	5.30 to 6.30
c1ccc(-c2nsc(Nc3ccc(N4CCCC4)cn3)n2)nc1 [Cmpd 8, 3-(pyridin-2-yl)-N-(5-(pyrrolidin-1-yl)pyridin-2-yl)-1,2,4-thiadiazol-5-amine]	> 6.70	–
Cc1cccnc1Nc1nc(-c2ccc(OC3CCN(C(=O)C(C)C)CC3)cn2)ns1 [Compound 265, 2-methyl-1-(4-(6-(5-(3-methylpyridin-2-ylamino)-1,2,4-thiadiazol-3-yl)pyridin-3-yloxy)piperidin-1-yl)propan-1-one]	–	5.30 to 6.30
CC(C)Oc1ccc(-c2nsc(Nc3ncccc3N3CCCC3=O)n2)nc1 [Compound 178, 1-(2-(3-(5-isopropoxy-pyridin-2-yl)-1,2,4-thiadiazol-5-ylamino)pyridin-3-yl)pyrrolidin-2-one]	5.30 to 6.30	–
CC(C)Oc1ccc(-c2nsc(Nc3ncccc3C(F)(F)F)n2)nc1 [Compound 54, 3-(5-isopropoxy-pyridin-2-yl)-N-(3-(trifluoromethyl)pyridin-2-yl)-1,2,4-thiadiazol-5-amine]	> 6.70	–
CC(C)c1cccnc1Nc1nc(-c2ccc(OC(F)F)cn2)ns1 [Compound 127, 3-(5-(difluoro-methoxy)pyridin-2-yl)-N-(3-isopropyl-pyridin-2-yl)-1,2,4-thiadiazol-5-amine]	> 6.70	–
CC(C)Oc1ccc(-c2nsc(Nc3ncccc3C(=O)N3CCCC3)n2)nc1 [Compound 190, (2-(3-(5-isoprop-oxypyridin-2-yl)-1,2,4-thiadiazol-5-ylamino)pyridin-3-yl) (pyrrolidin-1-yl) methanone]	6.30 to 6.70	–
CC(C)Oc1cccnc1-c1nsc(Nc2cc(N3CCCC3)ccn2)n1 [Compound 94, 3-(3-isopropoxy-pyridin-2-yl)-N-(4-(pyrrolidin-1-yl)pyridin-2-yl)-1,2,4-thiadiazol-5-amine]	> 6.70	–
CC(=O)N(C)c1cccnc1Nc1nc(-c2ccc(NC34CC(C3)C4)cn2)ns1 [Compound 207, N-(2-(3-(5-(bicyclo [1.1.1]pentan-1-ylamino)pyridin-2-yl)-1,2,4-thiadiazol-5-ylamino)pyridin-3-yl)-N-methylacetamide]	–	5.30 to 6.30
COc1ccnc(-c2nsc(Nc3cc(C(F)(F)F)c(C(C)C)cn3)n2)c1 [Compound 182, N-(5-iso-propyl-4-(trifluoro-methyl)pyridin-2-yl)-3-(4-methoxy-pyridin-2-yl)-1,2,4-thiadiazol-5-amine]	6.30 to 6.70	–
CN(C)c1cccnc1Nc1nc(-c2ccc(OC3CC3)cn2)ns1 [Compound 78, N2-(3-(5-cyclopropoxy-pyridin-2-yl)-1,2,4-thiadiazol-5-yl)-N3,N3-dimethyl-pyridine-2,3-diamine]	5.30 to 6.30	–

Reference: patent US11505548B2, “Heterocyclic compounds and their use for treatment of helminthic infections and diseases” (Celgene Corporation, priority 2019, dated 2022)
